From US6403831B1, “Substituted benzylidene indenyl formamides, acetamides and propionamides” (Cell Pathways, Inc., priority 1996, dated 2002) come the findings set out here.

For one experiment, the system named is human colon carcinoma cell line, SW-480. Nature of the experiment: Growth inhibition, Sulforhodamine B (SRB) protein binding assay. The class given is cell-based. To be noted: SW-480 cell line, six days continuous exposure. As to the method:
These compounds were assayed for their growth inhibitory activity on the human colon carcinoma cell line, SW-480 obtained from ATCC (Rockville, Md.), to ascertain the degree of growth inhibition. Growth inhibition of this cell line is indicative of a benefit on precancerous lesions and neoplasms. The cell line and growth assay employed for these experiments are well characterized, and are used to evaluate the anti-neoplastic properties of NSAIDs. The assay is used by the United States National Cancer Institute in its screening program for new anti-cancer drugs.
Drug stock solutions were made in 100% DMSO then diluted with RPMI media for cell culture testing. All drug solutions were prepared fresh on the day of testing. The cultured cells were obtained at passage #99 and grown in RPMI media supplemented with 5% fetal calf serum, and 2 mM glutamine, 100 U/ml penicillin, 100 U/ml streptomycin, and 0.25 μg/ml amphotericin. The cultures were maintained in a humidified atmosphere of 95% air and 5% CO2 at 37° C. The cultures were passaged at preconfluent densities using a solution of 0.05% trypsin and 0.53 mM EDTA. Cells were plated at 1000 cells/well for 96 well flat-bottom microtiter plates.
Tumor cell growth inhibition was assessed using the Sulforhodamine B (SRB) protein binding assay. In this assay, tumor cells were plated in 96-well plates and treated with drug-containing media for six days (continuous exposure). For each plate, 6 wells were designated as no treatment controls, six wells as vehicle (0.1% DMSO) controls, and the remaining wells for drug dilutions with three wells per drug concentration. At the end of the exposure period, the cells were fixed and stained with sulforhodamine B, a protein binding dye. The dye was then solubilized, and the optical density of the resulting solution was determined on a 96-well plate reader. The mean dye intensity of the treated wells was then divided by the mean dye intensity in the control wells (6 wells of each) to determine the effect of the drug on the cells. Dye intensity is proportional to the number of cells or amount of protein per well. The resultant “percent inhibition” value then represents the degree of growth inhibition caused by the drug.
For each experiment, an IC50 value was determined and used for comparative purposes. This value is equivalent to the concentration of drug needed to inhibit tumor cell growth by 50%. IC50 values were obtained graphically by connecting the mean values for each drug concentration tested. Each experiment included at least three wells per drug concentration. Concentration was plotted on a log scale on the X-axis.
In the case of `COc1cc(/C=C2/C(C)=C(CC(=O)Nc3ccc(Br)cc3)c3cc(F)ccc32)cc(OC)c1OC` [Example 23, (Z)-5-fluoro-2-methyl-1-(3,4,5-trimethoxybenzylidene)-3-(N-4-bromophenyl)-indenylacetamide], the IC50 (as a rule, the concentration at which inhibition is half-maximal) worked out at 8 µM.

A further experiment deals with T1, COX I (Ovis aries, UniProt P05979).
T1 construct: The COX was purified form ram seminal vesicles; from tissue; host or cells: ram seminal vesicles
T1 sequence (P05979 25-600): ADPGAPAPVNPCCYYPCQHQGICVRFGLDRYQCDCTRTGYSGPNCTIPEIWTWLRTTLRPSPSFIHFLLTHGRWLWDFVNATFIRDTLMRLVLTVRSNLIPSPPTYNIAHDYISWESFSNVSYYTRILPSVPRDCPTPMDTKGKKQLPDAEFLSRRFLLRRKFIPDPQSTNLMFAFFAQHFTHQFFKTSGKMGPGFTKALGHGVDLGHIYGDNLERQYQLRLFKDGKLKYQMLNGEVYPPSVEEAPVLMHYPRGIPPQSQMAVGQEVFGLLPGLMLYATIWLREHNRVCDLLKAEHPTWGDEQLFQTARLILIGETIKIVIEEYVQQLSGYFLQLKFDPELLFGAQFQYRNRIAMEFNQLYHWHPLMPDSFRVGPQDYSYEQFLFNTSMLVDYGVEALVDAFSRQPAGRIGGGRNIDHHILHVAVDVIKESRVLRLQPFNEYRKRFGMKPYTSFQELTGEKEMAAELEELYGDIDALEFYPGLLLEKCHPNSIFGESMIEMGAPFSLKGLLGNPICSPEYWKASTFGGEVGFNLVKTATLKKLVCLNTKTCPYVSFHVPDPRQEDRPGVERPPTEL
Nature of the experiment: Cyclooxygenase (COX) inhibition, purified COX. Conditions: 100 μM test compound; purified COX from ram seminal vesicles, arachidonic acid 100 μM. The class given is biochemical. As to the method: Compounds of this invention, as well as a positive control, sulindac sulfide were to determine whether they inhibited the production of cyclooxygenase (see Table 5 below).
COX catalyzes the formation of prostaglandins and thromboxane by the oxidative metabolism of arachidonic acid. The compounds of this invention were evaluated for inhibitory effects on purified COX. The COX was purified form ram seminal vesicles, as described by Boopathy, R. and Balasubramanian, J. 239:371-377, 1988. COX activity was assayed as described by Evans, A. T., et al., “Actions of cannabis constituents on enzymes of arachidonate metabolism anti-flammatory potential,” Biochem. Pharmacol., 36:2035-2037, 1987. Briefly, purified COX was incubated with arachidonic acid (100 μM) for 2.0 min at 37° C. in the presence or absence of test compounds. The assay was terminated buy the addition of TCA, and COX activity was determined by absorbance at 530 nm.
In the case of `COc1cc(/C=C2/C(C)=C(CC(=O)NCc3cccc(I)c3)c3cc(F)ccc32)cc(OC)c1OC` [Example 2, (Z)-5-fluoro-2-methyl-1-(3,4,5-trimethoxybenzylidene)-3-(N-3-iodobenzyl)-indenylacetamide], the “COX I % Inhibition (100 μM)” value is reported as below 25%.
On to `COc1cc(/C=C2/C(C)=C(CC(=O)NCc3cccc(Cl)c3)c3cc(F)ccc32)cc(OC)c1OC` [Example 3], for which the “COX I % Inhibition (100 μM)” value is recorded as below 35%.
Still for that read-out and setting: as for `COc1cc(/C=C2/C(C)=C(CC(=O)NCc3ccc(Cl)c(Cl)c3)c3cc(F)ccc32)cc(OC)c1OC` [Example 5, (Z)-5-fluoro-2-methyl-1-(3,4,5-trimethoxybenzylidene)-3-(N-3,4-dichlorobenzyl)-indenylacetamide], the figure is below 25%; as for `COc1cc(/C=C2/C(C)=C(CC(=O)NCc3ccc(F)cc3F)c3cc(F)ccc32)cc(OC)c1OC` [Example 6, (Z)-5-fluoro-2-methyl-1-(3,4,5-trimethoxybenzylidene)-3-(N-2,4-difluorobenzyl)-indenylacetamide], below 25%.
Consider `COc1cc(/C=C2/C(C)=C(CC(=O)NCc3cccc(F)c3)c3cc(F)ccc32)cc(OC)c1OC` [Example 7, (Z)-5-fluoro-2-methyl-1-(3,4,5-trimethoxybenzylidene)-3-(N-3-fluorobenzyl)-indenylacetamide], for which the “COX I % Inhibition (100 μM)” value was below 25%.
Turning to `COc1cc(/C=C2/C(C)=C(CC(=O)NCc3ccc(F)c(F)c3)c3cc(F)ccc32)cc(OC)c1OC` [Example 9, (Z)-5-fluoro-2-methyl-1-(3,4,5-trimethoxybenzylidene)-3-(N-3,4-difluorobenzyl)-indenylacetamide], the “COX I % Inhibition (100 μM)” value is below 25%.
On the same count and under the same terms, as for `COc1cc(/C=C2/C(C)=C(CC(=O)NCc3c(F)cccc3F)c3cc(F)ccc32)cc(OC)c1OC` [Example 10, (Z)-5-fluoro-2-methyl-1-(3,4,5-trimethoxybenzylidene)-3-(N-2,6-difluorobenzyl)-indenylacetamide], the figure is below 25%; as for `COc1cc(/C=C2/C(C)=C(CC(=O)NCc3cc(F)cc(C(F)(F)F)c3)c3cc(F)ccc32)cc(OC)c1OC` [Example 11, (Z)-5-fluoro-2-methyl-1-(3,4,5-trimethoxybenzylidene)-3-(N-3-fluoro-5-(trifluoromethyl)-benzyl)-indenylacetamide], below 25%; as for `COc1ccc(CNC(=O)CC2=C(C)/C(=C/c3cc(OC)c(OC)c(OC)c3)c3ccc(F)cc32)cc1` [Example 14, (Z)-5-fluoro-2-methyl-1-(3,4,5-trimethoxybenzylidene)-3-(N-4-methoxybenzyl)-indenylacetamide], below 25%.
The same measure, in the same setting: as for `COc1cc(CNC(=O)CC2=C(C)/C(=C/c3cc(OC)c(OC)c(OC)c3)c3ccc(F)cc32)cc(OC)c1` [Example 16, (Z)-5-fluoro-2-methyl-1-(3,4,5-trimethoxybenzylidene)-3-(N-3,5-dimethoxybenzyl)-indenylacetamide], the figure is below 25%; as for `COc1ccc(CNC(=O)CC2=C(C)/C(=C/c3cc(OC)c(OC)c(OC)c3)c3ccc(F)cc32)cc1OC` [Example 17, (Z)-5-fluoro-2-methyl-1-(3,4,5-trimethoxybenzylidene)-3-(N-3,4-dimethoxybenzyl)-indenylacetamide], below 25%.
Same read-out and setting: as for `COc1cccc(CNC(=O)CC2=C(C)/C(=C/c3cc(OC)c(OC)c(OC)c3)c3ccc(F)cc32)c1OC` [Example 18, (Z)-5 fluoro-2-methyl-1-(3,4,5-trimethoxybenzylidene)-3-(N-2,3-dimethoxybenzyl)-indenylacetamide], the figure is below 25%; as for `COc1cc(/C=C2/C(C)=C(CC(=O)NCc3ccc(S(N)(=O)=O)cc3)c3cc(F)ccc32)cc(OC)c1OC` [Example 20, (Z)-5-fluoro-2-methyl-1-(3,4,5-trimethoxybenzylidene)-3-(N-4-sulfonamidobenzyl)-indenylacetamide], 36.5%; as for `COc1cc(/C=C2/C(C)=C(CC(=O)NCc3ccc(N(C)C)cc3)c3cc(F)ccc32)cc(OC)c1OC` [Example 21, (Z)-5-fluoro-2-methyl-1-(3,4,5-trimethoxybenzylidene)-3-(N-4-(dimethylamino)-benzyl)-indenylacetamide], 36.5%.
For the compound `COc1cc(/C=C2/C(C)=C(CC(=O)Nc3ccc(Br)cc3)c3cc(F)ccc32)cc(OC)c1OC` [Example 23, (Z)-5-fluoro-2-methyl-1-(3,4,5-trimethoxybenzylidene)-3-(N-4-bromophenyl)-indenylacetamide], the “COX I % Inhibition (100 μM)” value was below 25%.
On the same count and under the same terms, as for `CCN(CC)C(=O)CC1=C(C)/C(=C/c2cc(OC)c(OC)c(OC)c2)c2ccc(F)cc21` [Example 24, (Z)-5-fluoro-2-methyl-1-(3,4,5 trimethoxybenzylidene)-3-(N,N-diethyl)-indenylacetamide], the figure is below 25%; as for `COc1cc(/C=C2/C(C)=C(CC(=O)NC(C)(C)C)c3cc(F)ccc32)cc(OC)c1OC` [Example 25, (Z)-5-fluoro-2-methyl-1-(3,4,5-trimethoxybenzylidene)-3-(N-tertbutyl)-indenylacetamide], 25%.
For the compound `COc1cc(/C=C2/C(C)=C(CC(=O)N(C3CCCCC3)C3CCCCC3)c3cc(F)ccc32)cc(OC)c1OC` [Example 26, (Z)-5-fluoro-2-methyl-1-(3,4,5-trimethoxybenzylidene)-3-(N,N-dicyc1ohexyl)-indenylacetamide], the “COX I % Inhibition (100 μM)” value worked out at 28.1%.
Still for that read-out and setting: the result for `COc1cc(/C=C2/C(C)=C(CC(=O)NCc3ccco3)c3cc(F)ccc32)cc(OC)c1OC` [Example 29, (Z)-5-fluoro-2-methyl-1-(3,4,5-trimethoxybenzylidene)-3-(N-furfuryl)-indenylacetamide] reads below 25%; that for `COc1cc(/C=C2/C(C)=C(CC(=O)NCC3CC3)c3cc(F)ccc32)cc(OC)c1OC` [Example 30, (Z)-5-fluoro-2-methyl-1-(3,4,5-trimethoxybenzylidene)-3-(N-cyclopropylmethyl)-indenylacetamide], below 25%.
In the case of `COc1cc(/C=C2/C(C)=C(CC(=O)NCc3cccnc3)c3cc(F)ccc32)cc(OC)c1OC` [Example 49, (Z)-5 fluoro-2-methyl-1-(3,4,5 trimetboxybenzylidene)-3-(N-3-pyridinyl)-idenylacetamide], the “COX I % Inhibition (100 μM)” value stood at 25%.
Take `COc1cc(/C=C2/C(C)=C(CC(=O)NCc3ccncc3)c3cc(F)ccc32)cc(OC)c1OC` [Example 50]: the “COX I % Inhibition (100 μM)” value amounted to 29.2%.
On the same count and under the same terms, as for `COc1cc(/C=C2\C(C)=C(CC(=O)NCc3ccccc3)c3cc(F)ccc32)cc(OC)c1OC` [Example 52, (E)-5-Fluoro-2-methyl-1-(3,4,5-trimethoxybenzylidene)-3-(N-benzyl)-indenylacetamide], the figure is below 25%.
